# Measurements published in patent publication US5686426A, “Dicarboxymethylated glycolipid derivatives as cell adhesion inhibitors” (Bristol-Myers Squibb Company, priority 1994, dated 1997).
# Tested on: reverse passive Arthus reaction in rats
# Test: Reverse Passive Arthus Reaction in Rats (RPA)
# Type: in vivo, Male Sprague Dawley rats
# Set-up: key: NS: no significant inhibition at 3 mg
# Conditions: rat, single IV dose 3 mg, 4 hours; for RPA VP % Inhib. (vascular permeability): 125I-BSA plasma extravasation into skin; for RPA MPO % Inhib. (myeloperoxidase, neutrophil accumulation): skin MPO activity
# From the text: The reverse passive Arthus reaction in rats is a modification of the method by Mulligan et al., as described in J. Clin. Invest., (1991) 88: 1396-1406. This is an experimental model in which the interaction of antigen-antibody complexes and complement leads to a severe vasculitis that is associated with edema, induration, erythema and hemorrhage. The interaction between the antigen-antibody complexes and complement leads to a localized influx of neutrophils. These neutrophils release a variety of mediators that are associated with tissue damage and vascular permeability. The localized inflammatory reaction is measured using different techniques i.e., vascular permeability and neutrophil influx which is evaluated both biochemically and microscopically.
# Male Sprague Dawley specific pathogen-free rats with jugular vein cannulae (280-320 g, Hill Top Labs, Pa.) are used in these studies. Animals are acclimated for at least 1 day and individually housed in stainless steel cages. The dorsal region of the rats is closely clipped 2 days prior to the experiments and divided into 4 sites on each side of the midline. Prior to all injections the rats are sedated with 0.4 ml per 300 gm rat of ketamine/rompun [1000 mg (10 ml) of ketamine HCL is mixed with 40 mg (2.0 ml) Rompun] administered IP and or inhalation anesthesia with metafane (methoxyflurane).
# Bovin Serum Albumin (BSA) and rabbit polyclonal IgG rich in anti-BSA are purchased from Sigma Chemical Co. (St. Louis, Mo.). Radiolabelled ^125 I-BSA (spAct 1-5 μCi/μg) is purchased from Dupont NEN (Boston, Mass.).
# Each rat is administered intradermal (ID) injection of (0.4 mg, 0.6 mg and 0.8 mg) anti-BSA in a volume of 100 μl per injection in normal saline. The ID injections are randomized near the mid dorsal region on both sides of the back bone. Immediately after the ID injections of the anti-BSA, the rats are administered intravenous (IV) injections of BSA (10 mg in 1.0 ml) in normal saline containing ^125 I labeled BSA (1 μCi/ml BSA or 5.0 μCi/kg body wt) for quantification of dermal vascular injury. Anti-inflammatory agents such as inhibitors of adhesion molecules of the present invention are administered IV at a single dose of 3 mg immediately after BSA. Four (4) hours after the IV injection of BSA, the rats are anesthetized with metafane and 2 to 3 ml of blood is withdrawn via the cannula into an anticoagulant containing (EDTA or Heparin) tube and plasma separated and saved for neutrophil and albumin quantitation. The rats are killed and the skin surrounding the injection site (15 mm diameter) is punched out and weighed. The skin samples and a fixed volume of plasma (0.1 to 1.0 ml) is analyzed in a gamma-counter for ^125 I content. Skin samples from the contralateral side are processed and analyzed for myeloperoxidase activity (MPO) as a measure of neutrophil accumulation. As needed, samples are also processed for histological evaluation of the reacted sites.
# Vascular Permeability (VP)
# The calculation of the plasma protein exudation into skin is made by determining the radioactivity in the tissue and relating this to the level of radioactive albumin in the blood at the time of sacrifice. […] [formula]
# Percent inhibition of the test compound at 3 mg was determined as follows: [formula] Myeloperoxidase (MPO)
# MPO is located in the azurophil granules of polymorphonuclear leukocytes (PMN). Because of its abundance in these cells (5% dry weight), this enzyme is used as a marker for tissue neutrophil content. For tissue MPO content, the method of Bradley, et al., was used as described in J. Invest. Dermatol. (1982) 78: 206-209. Biopsies from each treatment group were placed in plastic tubes (15×100 mm) containing 10 ml of 0.5% hexadecyltrimethylammonium bromide (HTAB)in 0.05M potassium phosphate buffer pH 6.0. The tissue was then homogenized with a Brinkmann Polytron homogenizer (10s). […]
Structure (SMILES),RPA VP % Inhib. (vascular permeability),"RPA MPO % Inhib. (myeloperoxidase, neutrophil accumulation)"
"CCCCCCCCCCCCC/C=C/[C@@H](OC(=O)c1ccccc1)[C@H](CO[C@H]1O[C@H](COCC(=O)O)[C@H](OCC(=O)O)[C@H](OC(=O)c2ccccc2)[C@H]1OC(=O)c1ccccc1)NC(=O)CCCCCCCCCCCCCCC [Example 2, (2S,3R,4E)-3-Benzoyloxy-2-hexadecanoylamino-1-[2,3-di-O-benzoyl-4,6-di-O-carboxymethyl-α-D-galactopyranosyloxy]-4-octadecene]",> 73%,> 99%
"CCCCCC/C=C/[C@@H](OC(=O)c1ccccc1)[C@H](CO[C@H]1O[C@H](COCC(=O)O)[C@H](OCC(=O)O)[C@H](OC(=O)c2ccccc2)[C@H]1OC(=O)c1ccccc1)NC(=O)CCCCCCCCC(=O)OC [Example 8, (2S,3R,4E)-3-Benzoyloxy-2-(9-methoxycarbonyl-nonanoylamino)-1-(2,3-di-O-benzoyl-4,6-di-O-carboxymethyl-α-D-galactopyranosyloxy)-4-undecene]",9%,22%
"CCCCCCCCCCCCC/C=C/[C@@H](OC(=O)c1ccccc1)[C@H](CO[C@H]1O[C@H](COCC(=O)O)[C@H](OCC(=O)O)[C@H](O)[C@H]1OC(=O)c1ccccc1)NC(=O)CCCCCCCCCCCCCCC [Example 14, (2S,3R,4E)-3-Benzoyloxy-2-hexadecanoylamino-1-[2-O-benzoyl-4,6-di-O-carboxymethyl-α-D-galactopyranosyloxy]-4-octadecene]",32%,13%
"CCCCCCCCCCCCC/C=C/[C@@H](OC(=O)c1ccccc1)[C@H](CO[C@@H]1O[C@H](COCC(=O)O)[C@H](OCC(=O)O)[C@H](OC(=O)c2ccccc2)[C@H]1OC(=O)c1ccccc1)NC(=O)CCCCCCCCCCCCCCC [Example 16, (2S,3R,4E)-2-Hexadecanoylamino-3-benzoyloxy-1-(4,6-di-O-carboxymethyl-2,3-di-O-benzoyl-β-D-galactopyranoside)-4-octadecene]",NS,NS
"CCCCCCCCCCCCC/C=C/[C@@H](OC(=O)c1ccccc1)[C@H](CO[C@@H]1O[C@H](COCC(=O)O)[C@H](OCC(=O)O)[C@H](OC(=O)c2ccccc2)[C@H]1O)NC(=O)CCCCCCCCCCCCCCC [Example 18, (2S,3R,4E)-3-Benzoyloxy-2-hexadecanoylamino-1-[3-O-benzoyl-4,6-di-O-carboxymethyl-β-D-galactopyranosyloxy]-4-octadecene]",73.6%,98%
